For 17 compounds, IC50 results are on record in patent US12662491B2 (Redona Therapeutics, Inc., priority 2020, dated 2026).

For one assay, the target named is T1, Zcchc11 enzyme (Homo sapiens, UniProt Q5TAX3).
T1 construct: made in house; host or cells: HEK293 cells (Zcchc11); E. coli Rosetta II (LIN28A)
T1 sequence (Q5TAX3 212-1420): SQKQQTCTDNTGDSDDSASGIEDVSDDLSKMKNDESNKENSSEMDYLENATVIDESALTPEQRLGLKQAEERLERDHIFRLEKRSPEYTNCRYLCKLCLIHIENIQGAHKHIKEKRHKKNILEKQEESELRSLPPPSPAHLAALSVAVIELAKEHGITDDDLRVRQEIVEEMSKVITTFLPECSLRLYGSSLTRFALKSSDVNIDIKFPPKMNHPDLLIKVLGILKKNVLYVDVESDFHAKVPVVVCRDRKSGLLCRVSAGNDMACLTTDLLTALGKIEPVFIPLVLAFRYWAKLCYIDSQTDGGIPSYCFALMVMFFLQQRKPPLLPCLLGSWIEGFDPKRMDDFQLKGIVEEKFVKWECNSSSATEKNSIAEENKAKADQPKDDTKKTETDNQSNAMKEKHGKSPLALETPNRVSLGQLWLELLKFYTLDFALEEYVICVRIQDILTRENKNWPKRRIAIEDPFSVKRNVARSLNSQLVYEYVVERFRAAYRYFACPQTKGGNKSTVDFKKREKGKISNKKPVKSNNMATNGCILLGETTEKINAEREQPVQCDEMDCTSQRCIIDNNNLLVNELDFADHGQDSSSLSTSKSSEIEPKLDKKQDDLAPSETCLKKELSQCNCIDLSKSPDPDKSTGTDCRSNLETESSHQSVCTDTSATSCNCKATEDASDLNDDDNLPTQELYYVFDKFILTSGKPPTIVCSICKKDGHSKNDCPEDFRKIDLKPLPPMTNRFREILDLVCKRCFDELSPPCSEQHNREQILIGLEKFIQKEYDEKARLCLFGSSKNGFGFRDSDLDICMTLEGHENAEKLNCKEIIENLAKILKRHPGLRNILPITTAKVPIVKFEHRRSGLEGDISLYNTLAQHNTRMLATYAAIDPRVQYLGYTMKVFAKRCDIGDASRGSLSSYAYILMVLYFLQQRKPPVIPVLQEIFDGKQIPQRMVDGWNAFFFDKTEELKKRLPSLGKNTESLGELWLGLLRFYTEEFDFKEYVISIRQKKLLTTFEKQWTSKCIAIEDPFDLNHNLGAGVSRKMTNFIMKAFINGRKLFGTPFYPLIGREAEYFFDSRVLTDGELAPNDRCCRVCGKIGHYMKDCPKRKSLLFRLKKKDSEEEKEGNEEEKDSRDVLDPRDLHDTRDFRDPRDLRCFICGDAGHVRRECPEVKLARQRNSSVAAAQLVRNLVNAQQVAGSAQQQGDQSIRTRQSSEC
As to the kind of experiment: TUTase assay (Zcchc11 assay, Lin28a-dependent polyuridylation of pre-let-7). It counts as biochemical. The conditions noted are these: LIN28A 10 nM, Zcchc11 0.2 nM, 5′-fluorescein pre-let-7 miRNA 2 nM, UTP 5 uM, room temperature, 30 minutes pre-incubation; read-out: Potency Lin28a-dep Z11 IC50. A digest of the protocol: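 Potency is measured as inhibition of LIN28A-driven U-tail addition to 2 nM pre-let-7 by 0.2 nM HEK293-derived Zcchc11 fragment with 5 uM UTP at room temperature. Tail growth appears as fluorescein quenching by an annealing rhodamine-A20 probe.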
On to `Cc1c(F)c(N2CCC[C@@H]2COc2ccccn2)cc2c1c(=O)c(C(=O)O)cn2C1CC1` [Example 1, (R)-1-cyclopropyl-6-fluoro-5-methyl-4-oxo-7-(2-((pyridin-2-yloxy)methyl)pyrrolidin-1-yl)-1,4-dihydroquinoline-3-carboxylic acid], for which the half-inhibitory concentration (IC50) is more than 50000 nM.
The same measure, in the same setting: as for `O=C(O)c1cn(-c2ncccn2)c2cc(N3CCC[C@@H]3COc3ccccn3)c(Cl)cc2c1=O` [Example 2, (R)-6-chloro-4-oxo-7-(2-((pyridin-2-yloxy)methyl)pyrrolidin-1-yl)-1-(pyrimidin-2-yl)-1,4-dihydroquinoline-3-carboxylic acid], the figure is 1000 to 10000 nM; as for `COc1c(N2CCC[C@@H]2COc2ccccn2)c(F)cc2c(=O)c(C(=O)O)cn(C3CC3)c12` [Example 3, (R)-1-cyclopropyl-6-fluoro-8-methoxy-4-oxo-7-(2-((pyridin-2-yloxy)methyl)pyrrolidin-1-yl)-1,4-dihydroquinoline-3-carboxylic acid], more than 50000 nM; as for `O=C(O)c1cn(-c2ccccc2)c2cc(N3CCC[C@@H]3COc3ccccc3)c(F)cc2c1=O` [Example 4, (R)-6-fluoro-4-oxo-7-(2-(phenoxymethyl)pyrrolidin-1-yl)-1-phenyl-1,4-dihydroquinoline-3-carboxylic acid], more than 50000 nM.
The same measure, in the same setting: the figure for `Cc1cccnc1OC[C@H]1CCCN1c1cc2c(cc1F)c(=O)c(C(=O)O)cn2-c1ccccc1` [Example 5, (R)-6-fluoro-7-(2-(((3-methylpyridin-2-yl)oxy)methyl)pyrrolidin-1-yl)-4-oxo-1-phenyl-1,4-dihydroquinoline-3-carboxylic acid] is not above 1000 nM; for `CCc1cccnc1OC[C@H]1CCCN1c1cc2c(cc1F)c(=O)c(C(=O)O)cn2-c1ccccc1` [Example 6, (R)-7-(2-(((3-ethylpyridin-2-yl)oxy)methyl)pyrrolidin-1-yl)-6-fluoro-4-oxo-1-phenyl-1,4-dihydroquinoline-3-carboxylic acid] it is more than 50000 nM.

The same assay, now with this note: Lin28a-dependent Zcchc11 (Z11) TUTase activity; read-out: Potency Lin28a-dep Z11 IC50.
For the compound `COc1ccc(F)c(OC[C@H]2C[C@H]3C[C@H]3N2c2cc3c(cc2Cl)c(=O)c(C(=O)O)cn3-c2ccnc(N)c2)n1` [Compound 342, 1-(2-Aminopyridin-4-yl)-6-chloro-7-[(1R,3R,5R)-3-{[(3-fluoro-6-methoxy-pyridin-2-yl)oxy]methyl}-2-azabicyclo [3.1.0]hexan-2-yl]-4-oxoquinoline-3-carboxylic acid], the IC50 is not above 1000 nM.
The same measure, in the same setting: as for `Cc1ccc(F)c(OC[C@H]2C[C@H]3C[C@H]3N2c2cc3c(cc2Cl)c(=O)c(C(=O)O)cn3-c2ccc(N(C)C)nc2)n1` [Compound 343, 6-Chloro-1-[6-(dimethyl-amino)pyridin-3-yl]-7-[(1R,3R,5R)-3-{[(3-fluoro-6-methylpyridin-2-yl)oxy]methyl}-2-azabicyclo [3.1.0]hexan-2-yl]-4-oxoquinoline-3-carboxylic acid], the figure is not above 1000 nM; as for `Cc1ccc(F)c(OC[C@H]2C[C@H]3C[C@H]3N2c2cc3c(cc2F)c(=O)c(C(=O)O)cn3-c2ccc(N(C)C)nc2)n1` [Compound 344, 1-[6-(Dimethyl-amino)pyridin-3-yl]-6-fluoro-7-[(1R,3R,5R)-3-{[(3-fluoro-6-methylpyridin-2-yl)oxy]methyl}-2-azabicyclo [3.1.0]hexan-2-yl]-4-oxoquinoline-3-carboxylic acid], not above 1000 nM; as for `COc1ccc(Cl)c(OC[C@H]2C[C@@H](c3cccnc3)CN2c2cc3c(cc2Cl)c(=O)c(C(=O)O)cn3-c2ccc(N3CC(N(C)C)C3)nc2)n1` [Compound 345, 6-chloro-7-((2R,4S)-2-(((3-chloro-6-methoxy-pyridin-2-yl)oxy)methyl)-4-(pyridin-3-yl)pyrrolidin-1-yl)-1-(6-(3-(dimethyl-amino)azetidin-1-yl)pyridin-3-yl)-4-oxo-1,4-dihydro-quinoline-3-carboxylic acid], not above 1000 nM.
Same read-out and setting: as for `CN(C)C1CN(c2ccc(-n3cc(C(=O)O)c(=O)c4cc(Cl)c(N5CC(c6ncccn6)C[C@@H]5COc5ncccc5Cl)cc43)cn2)C1` (stereo partly drawn) [Compound 346, 6-chloro-7-((2R)-2-(((3-chloropyridin-2-yl)oxy)methyl)-4-(pyrimidin-2-yl)pyrrolidin-1-yl)-1-(6-(3-(dimethyl-amino)azetidin-1-yl)pyridin-3-yl)-4-oxo-1,4-dihydro-quinoline-3-carboxylic acid], the figure is not above 1000 nM; as for `CN(C)C1CN(c2ccc(-n3cc(C(=O)O)c(=O)c4cc(Cl)c(N5CC6(CC6)C[C@@H]5COc5ncccc5Cl)cc43)cn2)C1` [Compound 347, (R)-6-chloro-7-(6-(((3-chloropyridin-2-yl)oxy)methyl)-5-azaspiro[2.4]heptan-5-yl)-1-(6-(3-(dimethyl-amino)azetidin-1-yl)pyridin-3-yl)-4-oxo-1,4-dihydro-quinoline-3-carboxylic acid], not above 1000 nM.
Same read-out and setting: as for `COc1ccc(Cl)c(OC[C@H]2C[C@H](c3cccnc3)CN2c2cc3c(cc2Cl)c(=O)c(C(=O)O)cn3-c2ccc(N3CC(N(C)C)C3)nc2)n1` [Compound 348, 6-chloro-7-((2R,4R)-2-(((3-chloro-6-methoxy-pyridin-2-yl)oxy)methyl)-4-(pyridin-3-yl)pyrrolidin-1-yl)-1-(6-(3-(dimethyl-amino)azetidin-1-yl)pyridin-3-yl)-4-oxo-1,4-dihydro-quinoline-3-carboxylic acid], the figure is not above 1000 nM; as for `CN(C)C1CN(c2ccc(-n3cc(C(=O)O)c(=O)c4cc(Cl)c(N5CC(C6CC6)C[C@@H]5COc5ncccc5Cl)cc43)cn2)C1` (stereo partly drawn) [Compound 349, 6-chloro-7-((2R)-2-(((3-chloropyridin-2-yl)oxy)methyl)-4-cyclopropyl-pyrrolidin-1-yl)-1-(6-(3-(dimethyl-amino)azetidin-1-yl)pyridin-3-yl)-4-oxo-1,4-dihydro-quinoline-3-carboxylic acid], not above 1000 nM.
Regarding `CN(C)c1ccc(Cl)c(OC[C@H]2CCCN2c2cc3c(cc2Cl)c(=O)c(C(=O)O)cn3-c2ccc(N3CC(N(C)C)C3)nc2)n1` [Compound 350, (R)-6-chloro-7-(2-(((3-chloro-6-(dimethyl-amino)pyridin-2-yl)oxy)methyl)pyrrolidin-1-yl)-1-(6-(3-(dimethyl-amino)azetidin-1-yl)pyridin-3-yl)-4-oxo-1,4-dihydro-quinoline-3-carboxylic acid], the IC50 is not above 1000 nM.
Still for that read-out and setting: as for `CN(C)C1CN(c2ccc(-n3cc(C(=O)O)c(=O)c4cc(Cl)c(N5CCC(C)(C)[C@@H]5COc5ncccc5Cl)cc43)cn2)C1` [Compound 351, (R)-6-chloro-7-(2-(((3-chloropyridin-2-yl)oxy)methyl)-3,3-dimethyl-pyrrolidin-1-yl)-1-(6-(3-(dimethyl-amino)azetidin-1-yl)pyridin-3-yl)-4-oxo-1,4-dihydro-quinoline-3-carboxylic acid], the figure is not above 1000 nM; as for `COc1ccc(Cl)c(OC[C@H]2CC(c3cn[nH]c3)CN2c2cc3c(cc2F)c(=O)c(C(=O)O)cn3-c2ccc(N3CC(N(C)C)C3)nc2)n1` (stereo partly drawn) [Compound 352, 7-((2R)-2-(((3-chloro-6-methoxy-pyridin-2-yl)oxy)methyl)-4-(1H-pyrazol-4-yl)pyrrolidin-1-yl)-1-(6-(3-(dimethyl-amino)azetidin-1-yl)pyridin-3-yl)-6-fluoro-4-oxo-1,4-dihydro-quinoline-3-carboxylic acid compound with formic acid (1:1)], not above 1000 nM.
